Measurements as given in patent US6416991B1, “Human cyclic nucleotide PDES” (Incyte Genomics, Inc., priority 1999, dated 2002).
Blank lines part the entries; values can stand above or below the compound they belong to.

Legend:
PDE4 = settings: read-out: Selective for PDE type (IC50): PDE4; cited from earlier work
HSPDE10A1 [1] = target: T1, HSPDE10A1 (Homo sapiens, UniProt Q9HCR9); test: Inhibition of HSPDE10A1 PDE activity, scintillation proximity assay with cGMP as substrate
Experimental: (§1) 50 μl of 20 mM Tris-HCl pH 7.4 and 5 mM MgCl2 containing the required concentration of cyclic nucleotide was added to 50 μl of diluted enzyme (or no enzyme for background control) in 20 mM Tris-HCl pH 7.4, 5 mM MgCl2 and 2 mg/ml bovine serum albumin to initiate the reaction.
Reactions were initiated by the addition of substrate.

PDEs (non-selective) = settings: range observed for other PDEs; read-out: Selective for PDE type (IC50): non-selective; cited from earlier work
HSPDE10A1 [2] = target: T1, HSPDE10A1; test: HSPDE10A1 enzyme kinetics (Km, Vmax) with cAMP and cGMP as substrates; settings: substrate 0.15-10 μM, Michaelis-Menten plot
Experimental: Km and Vmax values for the enzyme activity with each substrate were calculated from a Michaelis-Menten plot using the “Fit Curve” Microsoft Excel extension program.
as §1
Data points in the linear part of the reaction were used to calculate Km and Vmax from a Michaelis-Menten plot using the ‘Fit Curve’ program of EXCEL software (Microsoft, Redmond Wash.).

PDE3 = settings: read-out: Selective for PDE type (IC50): PDE3; cited from earlier work

T1 sequence (Q9HCR9 445-933): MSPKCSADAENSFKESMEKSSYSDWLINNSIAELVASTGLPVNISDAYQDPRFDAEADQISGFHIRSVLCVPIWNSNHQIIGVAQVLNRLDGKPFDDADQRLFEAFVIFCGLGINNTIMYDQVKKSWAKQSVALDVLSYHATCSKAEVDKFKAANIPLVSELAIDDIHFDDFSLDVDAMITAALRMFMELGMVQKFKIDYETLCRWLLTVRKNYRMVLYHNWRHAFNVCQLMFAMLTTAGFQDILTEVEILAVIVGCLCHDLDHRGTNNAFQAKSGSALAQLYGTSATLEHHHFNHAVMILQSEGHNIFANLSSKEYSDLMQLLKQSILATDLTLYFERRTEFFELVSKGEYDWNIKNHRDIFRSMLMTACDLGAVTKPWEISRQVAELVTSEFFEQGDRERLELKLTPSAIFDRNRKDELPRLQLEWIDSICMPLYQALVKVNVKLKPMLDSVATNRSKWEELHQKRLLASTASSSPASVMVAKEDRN

IC50 (HSPDE10A1 [1]): 160 µM
Structure (SMILES): COc1ccc(C2CNC(=O)C2)cc1OC1CCCC1 (centres unmarked) [Rolipram]

IC50 (HSPDE10A1 [1]): 40 µM
Structure (SMILES): CC(C)Cn1c(=O)n(C)c(=O)c2[nH]cnc21 [IBMX, 3-isobutyl1-methylxanthine]
IC50 (PDEs (non-selective)): 2 to 50 µM

Km (HSPDE10A1 [2]; read-out: Km for HSPDE10A1): 0.52 µM
Vmax (rate of hydrolysis by HSPDE10A1) (HSPDE10A1 [2]): 0.21 μmole/min/ml enzyme
Structure (SMILES): Nc1nc2c(ncn2[C@@H]2O[C@@H]3COP(=O)(O)O[C@H]3[C@H]2O)c(=O)[nH]1 [cGMP]

Structure (SMILES): Cc1[nH]c(=O)c(C#N)cc1-c1ccncc1 [Milrinone]
IC50 (PDE3): 1 µM
IC50 (HSPDE10A1 [1]): > 200 µM
